What was measured:
Assay type in all cases: in vivo
[1] = system: Polygonum convolvulus; assay: Post-emergence herbicidal action, POLCO; details: comparative experiment, post-emergence, 5 g of a.i./ha
In short: (§1)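 Percent herbicidal effect was judged by eye against untreated controls around 3 weeks after foliar treatment, where 100% meant dead plants. Spraying took place at the one-leaf stage using wettable powder or emulsion concentrate diluted in water (600 to 800 l/ha) with added wetting agent at 0.2%.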

[2] = system: Abutilon theophrasti; assay: Pre-emergence herbicidal action, ABUTH; set-up: key to Herbicidal action against ABUTH: % activity: 100 = plants have died, 0 = like control plants; details: comparative experiment
In short: (§2)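 Herbicidal activity is expressed in percent, scored by eye after a 3-week greenhouse period, with 0% matching untreated plants and 100% meaning death. Compounds, as wettable powders or emulsion concentrates, are applied pre-emergence to the covering soil.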

[3] = system: Alopecurus myosuroides; assay: Pre-emergence herbicidal action, ALOMY; set-up: key: % activity: 100 = plants have died, 0 = like control plants; details: comparative experiment
Source text: (§3) 1. Pre-Emergence Herbicidal Action Against Harmful Plants Seeds of monocotyledonous and dicotyledonous weed plants and crop plants are laid out in sandy loam soil in wood-fiber pots and covered with soil. The compounds of the invention, formulated in the form of wettable powders (WP) or as emulsion concentrates (EC), are then applied to the surface of the covering soil in the form of an aqueous suspension or emulsion at a water application rate equating to 600 to 800 l/ha, with addition of 0.2% wetting agent. After the treatment, the pots are placed in a greenhouse and kept under good growth conditions for the trial plants. The damage to the test plants is scored visually after a test period of 3 weeks by comparison with untreated controls (herbicidal activity in percent (%): 100% activity=the plants have died, 0% activity=like control plants). […] The tables below illustrate, in an exemplary manner, the […] herbicidal action of the compounds according to the invention, the herbicidal activity being stated in percent. [table] In the experiments that follow, herbicidal action of numerous inventive compounds and the known compounds that are structurally closest from D1 (WO 2012/028579 A1) and D2 (WO 2018/202535 A1) were compared under the above-specified conditions by the pre-emergence and post-emergence method. The example numbers given in the tables relate to the compounds disclosed in the respective documents. In addition to the compounds disclosed in D1 and D2, the following compounds V-1 to V-14 that are encompassed by D1 or D2 but are not compounds specified therein were used in the comparative experiments: • V-1: 2-(methylsulfanyl)-3-(methylsulfinyl)-N-(1-methyl-1H-tetrazol-5-yl)-4-(trifluoromethyl)benzamide • V-2: 2-(methylsulfanyl)-3-(methylsulfonyl)-N-(1-methyl-1H-tetrazol-5-yl)-4-(trifluoromethyl)benzamide • V-3: 2,3-bis(ethylsulfanyl)-N-(1-methyl-1H-tetrazol-5-yl)-4-(trifluoromethyl)benzamide • V-4: 2-chloro-3-(ethylsulfanyl)-N-(1-methyl-1H-tetrazol-5-yl)-4-(trifluoromethyl)benzamide • V-5: 2-chloro-4-iodo-3-(methylsulfanyl)-N-(1-methyl-1H-tetrazol-5-yl)benzamide • V-6: 2-chloro-4-iodo-3-(methylsulfinyl)-N-(1-methyl-1H-tetrazol-5-yl)benzamide • V-7: 2-chloro-4-iodo-3-(methylsulfonyl)-N-(1-methyl-1H-tetrazol-5-yl)benzamide • V-8: 2-bromo-3-(methylsulfanyl)-N-(1-methyl-1H-tetrazol-5-yl)-4-(trifluoromethyl)benzamide • V-9: 2-bromo-3-(methylsulfinyl)-N-(1-methyl-1H-tetrazol-5-yl)-4-(trifluoromethyl)benzamide • V-10: 2-bromo-3-(methylsulfonyl)-N-(1-methyl-1H-tetrazol-5-yl)-4-(trifluoromethyl)benzamide • V-11: 2-bromo-3-(ethylsulfanyl)-N-(1-methyl-1H-tetrazol-5-yl)-4-(trifluoromethyl)benzamide • V-12: 2-bromo-3-(ethylsulfinyl)-N-(1-methyl-1H-tetrazol-5-yl)-4-(trifluoromethyl)benzamide • V-13: 2-bromo-3-(ethylsulfonyl)-N-(1-methyl-1-1H-tetrazol-5-yl)-4-(trifluoromethyl)benzamide • V-14: 2-cyclopropyl-3-(ethylsulfanyl)-N-(1-methyl-1H-tetrazol-5-yl)-4-(trifluoromethyl)benzamide Herbicidal Pre-Emergence Action: […]

[4] = system: Lolium multiflorum; assay: Post-emergence herbicidal action, LOLMU; set-up: key: % herbicidal action: 100 = plants died, 0 = like control; details: comparative experiment, post-emergence, 5 g of a.i./ha
Description: [table] 2. Post-Emergence Herbicidal Action Against Harmful Plants Seeds of monocotyledonous and dicotyledonous weed and crop plants are laid out in sandy loam soil in wood-fiber pots, covered with soil and cultivated in a greenhouse under good growth conditions. 2 to 3 weeks after sowing, the test plants are treated at the one-leaf stage. The compounds of the invention, formulated in the form of wettable powders (WP) or as emulsion concentrates (EC), are then sprayed onto the green parts of the plants in the form of an aqueous suspension or emulsion at a water application rate equating to 600 to 800 l/ha, with addition of 0.2% wetting agent. After the test plants have been left to stand in the greenhouse under optimal growth conditions for about 3 weeks, the action of the preparations is assessed visually in comparison to untreated controls (herbicidal action in percent (%): 100% activity=the plants have died, 0% activity=like control plants). […] The tables below illustrate, in an exemplary manner, the post-emergence herbicidal action of the compounds according to the invention, the herbicidal activity being stated in percent. In the experiments that follow, herbicidal action of numerous inventive compounds and the known compounds that are structurally closest from D1 (WO 2012/028579 A1) and D2 (WO 2018/202535 A1) were compared under the above-specified conditions by the pre-emergence and post-emergence method. The example numbers given in the tables relate to the compounds disclosed in the respective documents. In addition to the compounds disclosed in D1 and D2, the following compounds V-1 to V-14 that are encompassed by D1 or D2 but are not compounds specified therein were used in the comparative experiments: • V-1: 2-(methylsulfanyl)-3-(methylsulfinyl)-N-(1-methyl-1H-tetrazol-5-yl)-4-(trifluoromethyl)benzamide • V-2: 2-(methylsulfanyl)-3-(methylsulfonyl)-N-(1-methyl-1H-tetrazol-5-yl)-4-(trifluoromethyl)benzamide • V-3: 2,3-bis(ethylsulfanyl)-N-(1-methyl-1H-tetrazol-5-yl)-4-(trifluoromethyl)benzamide • V-4: 2-chloro-3-(ethylsulfanyl)-N-(1-methyl-1H-tetrazol-5-yl)-4-(trifluoromethyl)benzamide • V-5: 2-chloro-4-iodo-3-(methylsulfanyl)-N-(1-methyl-1H-tetrazol-5-yl)benzamide • V-6: 2-chloro-4-iodo-3-(methylsulfinyl)-N-(1-methyl-1H-tetrazol-5-yl)benzamide • V-7: 2-chloro-4-iodo-3-(methylsulfonyl)-N-(1-methyl-1H-tetrazol-5-yl)benzamide • V-8: 2-bromo-3-(methylsulfanyl)-N-(1-methyl-1H-tetrazol-5-yl)-4-(trifluoromethyl)benzamide • V-9: 2-bromo-3-(methylsulfinyl)-N-(1-methyl-1H-tetrazol-5-yl)-4-(trifluoromethyl)benzamide • V-10: 2-bromo-3-(methylsulfonyl)-N-(1-methyl-1H-tetrazol-5-yl)-4-(trifluoromethyl)benzamide • V-11: 2-bromo-3-(ethylsulfanyl)-N-(1-methyl-1H-tetrazol-5-yl)-4-(trifluoromethyl)benzamide • V-12: 2-bromo-3-(ethylsulfinyl)-N-(1-methyl-1H-tetrazol-5-yl)-4-(trifluoromethyl)benzamide • V-13: 2-bromo-3-(ethylsulfonyl)-N-(1-methyl-1-1H-tetrazol-5-yl)-4-(trifluoromethyl)benzamide • V-14: 2-cyclopropyl-3-(ethylsulfanyl)-N-(1-methyl-1H-tetrazol-5-yl)-4-(trifluoromethyl)benzamide Herbicidal Pre-Emergence Action: […]

[5] = system: Matricaria inodora; assay: Pre-emergence herbicidal action, MATIN; set-up: key to Herbicidal action against MATIN: % activity: 100 = plants have died, 0 = like control plants; details: comparative experiment, 20 g of a.i./ha
In short: as §2

[6] = system: Stellaria media; assay: Post-emergence herbicidal action, STEME; set-up: key: % herbicidal action vs untreated; 100 = plants died, 0 = like control; details: comparative experiment, post-emergence, 5 g of a.i./ha
In short: as §1

[7] = system: Matricaria inodora; assay: Post-emergence herbicidal action, MATIN; set-up: key: % herbicidal action vs untreated; 100 = plants died, 0 = like control; details: comparative experiment, post-emergence
In short: as §1

[8] = system: Veronica persica; assay: Post-emergence herbicidal action, VERPE; set-up: key: % herbicidal action vs untreated; 100 = plants died, 0 = like control; details: comparative experiment, post-emergence
In short: as §1

[9] = system: Veronica persica; assay: Pre-emergence herbicidal action, VERPE; set-up: key to Herbicidal action against VERPE: % activity: 100 = plants have died, 0 = like control plants; details: comparative experiment, 20 g of a.i./ha
In short: as §2

[10] = system: Setaria viridis; assay: Pre-emergence herbicidal action, SETVI; set-up: key to Herbicidal action against SETVI: % activity: 100 = plants have died, 0 = like control plants; details: comparative experiment
In short: as §2

[11] = system: Cyperus esculentus; assay: Pre-emergence herbicidal action, CYPES; set-up: key: % activity: 100 = plants have died, 0 = like control plants; details: comparative experiment
Source text: as §3

[12] = system: Alopecurus myosuroides; assay: Post-emergence herbicidal action, ALOMY; set-up: key: % herbicidal action vs untreated; 100 = plants died, 0 = like control; details: comparative experiment, post-emergence, 5 g of a.i./ha
In short: as §1

[13] = system: Avena fatua; assay: Post-emergence herbicidal action, AVEFA; set-up: key: % herbicidal action vs untreated; 100 = plants died, 0 = like control; details: comparative experiment, post-emergence, 5 g of a.i./ha
In short: as §1

[14] = system: Viola tricolor; assay: Post-emergence herbicidal action, VIOTR; set-up: key: % herbicidal action vs untreated; 100 = plants died, 0 = like control; details: comparative experiment, post-emergence, 20 g of a.i./ha
In short: as §1

[15] = system: Abutilon theophrasti; assay: Post-emergence herbicidal action, ABUTH; set-up: key: % herbicidal action vs untreated; 100 = plants died, 0 = like control; details: comparative experiment, post-emergence, 20 g of a.i./ha
In short: as §1

[16] = system: Echinochloa crus-galli; assay: Post-emergence herbicidal action, ECHCG; set-up: key: % herbicidal action vs untreated; 100 = plants died, 0 = like control; details: comparative experiment, post-emergence, 20 g of a.i./ha
In short: as §1

[17] = system: Echinochloa crus-galli; assay: Pre-emergence herbicidal action, ECHCG; details: Echinochloa crus-galli, 504 h, comparative experiment, 80 g of a.i./ha, read-out: Herbicidal action against ECHCG
In short: as §2

[18] = system: Stellaria media; assay: Pre-emergence herbicidal action, STEME; set-up: key to Herbicidal action against STEME: % activity: 100 = plants have died, 0 = like control plants; details: comparative experiment, 80 g of a.i./ha
In short: as §2

[19] = system: Amaranthus retroflexus; assay: Post-emergence herbicidal action, AMARE; set-up: key: % herbicidal action vs untreated; 100 = plants died, 0 = like control; details: comparative experiment, post-emergence, 20 g of a.i./ha
In short: as §1

[20] = system: Viola tricolor; assay: Pre-emergence herbicidal action, VIOTR; set-up: key to Herbicidal action against VIOTR: % activity: 100 = plants have died, 0 = like control plants; details: comparative experiment, 80 g of a.i./ha
In short: as §2

[21] = system: Setaria viridis; assay: Post-emergence herbicidal action, SETVI; set-up: key: % herbicidal action vs untreated; 100 = plants died, 0 = like control; details: comparative experiment, post-emergence, 20 g of a.i./ha
In short: as §1

CCSc1c(C(F)(F)F)ccc(C(=O)Nc2nnnn2C)c1Cl [Example V-4, 2-chloro-3-(ethylsulfanyl)-N-(1-methyl-1H-tetrazol-5-yl)-4-(trifluoromethyl)benzamide, reference compound]
Herbicidal action against POLCO [1]: 30
Herbicidal action against ABUTH ([2]; 20 g of a.i./ha): 0
Herbicidal action against ALOMY ([3]; 20 g of a.i./ha): 40
Herbicidal action against LOLMU [4]: 10
Herbicidal action against MATIN [5]: 50
Herbicidal action against STEME [6]: 60
Herbicidal action against MATIN ([7]; 5 g of a.i./ha): 60
Herbicidal action against VERPE ([8]; 5 g of a.i./ha): 80
Herbicidal action against VERPE [9]: 80
Herbicidal action against SETVI ([10]; 20 g of a.i./ha): 60
Herbicidal action against CYPES ([11]; 20 g of a.i./ha): 0
Herbicidal action against ALOMY [12]: 40
Herbicidal action against AVEFA [13]: 30

CC[S+]([O-])c1c(C(F)(F)F)ccc(C(=O)Nc2nnnn2C)c1Br (stereo not drawn) [Example V-12, 2-bromo-3-(ethylsulfinyl)-N-(1-methyl-1H-tetrazol-5-yl)-4-(trifluoromethyl)benzamide, reference compound]
Herbicidal action against ABUTH ([2]; 80 g of a.i./ha): 0
Herbicidal action against ALOMY ([3]; 80 g of a.i./ha): 0
Herbicidal action against VIOTR [14]: 0
Herbicidal action against ABUTH [15]: 0
Herbicidal action against MATIN ([7]; 20 g of a.i./ha): 0
Herbicidal action against VERPE ([8]; 20 g of a.i./ha): 0
Herbicidal action against ECHCG [16]: 0
pest or weed control at 80 g/ha [17]: 0%
Herbicidal action against STEME [18]: 0
Herbicidal action against AMARE [19]: 10
Herbicidal action against VIOTR [20]: 0
Herbicidal action against SETVI ([10]; 80 g of a.i./ha): 0
Herbicidal action against SETVI [21]: 20
Herbicidal action against CYPES ([11]; 80 g of a.i./ha): 0

Reference: patent US12492173B2, “Herbicidal substituted N-tetrazolyl aryl carboxamides” (Bayer Aktiengesellschaft, priority 2019, dated 2025)
